The text below walks through data of US12325726B2, “Organic compounds” (priority 2018, dated 2025).

Usually Cmax stands for the peak of the concentration-time curve. By Tmax is commonly meant the time from dosing to the highest level. Broadly, the AUC is concentration integrated over time. Read a low AUC as low exposure.

The nature of data set [1]: In vivo mouse pharmacokinetics, paired oral co-dosing, plasma and brain. Also on record: species or system mice. The conditions noted are these: for Cmax / Tmax / AUC / concentration at 0.25 hr / concentration at 0.5 hr / concentration at 1 hr / concentration at 2 hr / concentration at 4 hr / concentration at 6 hr / Kp: 10 mg/kg po co-dosed; for AUC: 0.25-6 hr sampling; for Kp: brain/plasma, read-out: B/P AUC Ratio. The procedure:
In a first study, the compounds of Examples 2 to 6 are compared to the Compound of Formula A (Example 1) using standard procedures in mice. In each test, two compounds are co-dosed in a single animal and the relative pharmacokinetics in plasma and brain is determined. Each test compound is dissolved in polyethylene glycol 400 vehicle, and administered orally at a dose of 10 mg/kg. After single dose oral administration of the test compounds together, plasma and brain levels are measured at 0.25, 0.5, 1, 2, 4, and 6 hours post-dosing. The mean values for maximum concentration, time to maximum concentration, and Area Under the Curve (AUC) for both compounds are determined. The results are summarized in the tables below for various paired co-dosing experiments: […]

In data set [2] the test system is human hepatocyte. Description: In vitro human hepatocyte stability assay. The following applies: human hepatocytes. The data set is classed as in vitro ADME. The procedure:
The compounds of Examples 1, 2, 5 and 6 are compared in a standard in vitro human hepatocyte stability assay run in duplicate. Compounds are provided as 1 M solutions in DMSO, and concentration of test compound is determined at 0.5, 1.0 and 4.0 hours after addition of the test compound. Results are shown below as a percentage of initial concentration.

[3] abbreviates: brain, read-out: Brain concentration.
Where [4] appears, read: plasma, read-out: Plasma concentration.

Molecules are shown by their SMILES. Read-outs that look alike come from different tables or passages of the source.

`[2H]c1nc([2H])n(CC(=O)[C@H]2CC[C@H]3[C@@H]4CC[C@H]5C[C@@](O)(COC)CC[C@]5(C)[C@H]4CC[C@]23C)c1[2H]` [Example 2, 1-((3R,5S,8R,9S,10S,13S,14S,17S)-3-hydroxy-3-(methoxymethyl)-10,13-dimethylhexadecahydro-1H-cyclopenta[a]phenanthren-17-yl)-2-(1H-imidazol-1-yl-d3)ethan-1-one]: in data set [1] (10 mg/kg po), the “brain exposure of drug compared to the non-deuterated compound of Example 1” value is listed as “much higher” and the “brain/plasma AUC ratio compared to Example 1” value (shortened to “brain/plasma AUC ratio”) is reported as “much higher”. In addition, in data set [1] (brain), the peak concentration (Cmax) came to 7600 ng/g, the time to peak (Tmax) is 1 h and the exposure (AUC) turned out to be 29000 ng·h/mL. Also, in data set [1] (setting [3]), the concentration at 0.25 hr was 1840 ng/g, the concentration at 0.5 hr is 5590 ng/g, the concentration at 1 hr is 7600 ng/g and the concentration at 2 hr was determined as 6340 ng/g. In data set [1] (setting [3]), the concentration at 4 hr was 4890 ng/g and the concentration at 6 hr stood at 1410 ng/g. The Kp in data set [1] worked out at 2.8. Moreover, in data set [1] (plasma), the highest level (Cmax) was 2550 ng/mL, the Tmax turned out to be 1 h and the AUC was found to be 10300 ng·h/mL. For the same compound, in data set [1] (setting [4]), the concentration at 0.25 hr was determined as 1180 ng/mL, the concentration at 0.5 hr is 1740 ng/mL, the concentration at 1 hr worked out at 2550 ng/mL and the concentration at 2 hr amounted to 2120 ng/mL. In addition, in data set [1] (setting [4]), the concentration at 4 hr came out at 1760 ng/mL and the concentration at 6 hr was found to be 774 ng/mL. The “percentage of initial concentration” value in data set [2] (0 hr) turned out to be 100%. Moreover, the “percentage of initial concentration” value in data set [2] (0.5 hr) stood at 105%. In addition, the “percentage of initial concentration” value in data set [2] (1.0 hr) was 107%. In data set [2] (4.0 hr), the “percentage of initial concentration” value is given as 92%.

Turning to `[2H]C([2H])([2H])OC[C@@]1(O)CC[C@@]2(C)[C@@H](CC[C@@H]3[C@@H]2CC[C@]2(C)[C@@H](C(=O)Cn4ccnc4)CC[C@@H]32)C1` [Example 3, 1-((3R,5S,8R,9S,10S,13S,14S,17S)-3-hydroxy-3-((methoxy-d3)methyl)-10,13-dimethylhexadecahydro-1H-cyclopenta[a]phenanthren-17-yl)-2-(1H-imidazol-1-yl)ethan-1-one], the “plasma and brain AUC values and B/P ratio compared to Example 1” value in data set [1] (10 mg/kg po) is listed as “similar”. Moreover, in data set [1] (brain), the Cmax stood at 2620 ng/g, the Tmax is 1 h and the AUC is 13200 ng·h/mL. In addition, in data set [1] (setting [3]), the concentration at 0.25 hr came to 2200 ng/g, the concentration at 0.5 hr is 2000 ng/g, the concentration at 1 hr was 2620 ng/g and the concentration at 2 hr was 2370 ng/g. In data set [1] (setting [3]), the concentration at 4 hr came to 2200 ng/g and the concentration at 6 hr is 1980 ng/g. Further, the Kp in data set [1] was determined as 1.2. In data set [1] (plasma), the peak concentration (Cmax) turned out to be 2420 ng/mL, the Tmax worked out at 1 h and the AUC stood at 11300 ng·h/mL. For the same compound, in data set [1] (setting [4]), the concentration at 0.25 hr is 2170 ng/mL, the concentration at 0.5 hr was determined as 1570 ng/mL, the concentration at 1 hr stood at 2420 ng/mL and the concentration at 2 hr was determined as 2020 ng/mL. Further, in data set [1] (setting [4]), the concentration at 4 hr is 1810 ng/mL and the concentration at 6 hr came out at 1720 ng/mL.

As to `[2H]c1nc([2H])n(CC(=O)[C@H]2CC[C@H]3[C@@H]4CC[C@H]5C[C@@](O)(COC([2H])([2H])[2H])CC[C@]5(C)[C@H]4CC[C@]23C)c1[2H]` [Example 4, 1-((3R,5S,8R,9S,10S,13S,14S,17S)-3-hydroxy-3-((methoxy-d3)methyl)-10,13-dimethylhexadecahydro-1H-cyclopenta[a]phenanthren-17-yl)-2-(1H-imidazol-1-yl-d3)ethan-1-one], in data set [1] (10 mg/kg po), the “brain exposure of drug compared to the non-deuterated compound of Example 1” value was “much higher” and the “brain/plasma AUC ratio” value is recorded as “much higher”. Also, in data set [1] (brain), the peak level (Cmax) was 6530 ng/g, the time of peak concentration (Tmax) is 1 h and the AUC worked out at 25000 ng·h/mL. In data set [1] (setting [3]), the concentration at 0.25 hr turned out to be 1710 ng/g, the concentration at 0.5 hr was 5070 ng/g, the concentration at 1 hr was found to be 6530 ng/g and the concentration at 2 hr worked out at 5480 ng/g. In addition, in data set [1] (setting [3]), the concentration at 4 hr stood at 4200 ng/g and the concentration at 6 hr was found to be 1180 ng/g. Further, the Kp in data set [1] turned out to be 2.7. In data set [1] (plasma), the highest level (Cmax) was 2520 ng/mL, the Tmax is 1 h and the AUC came out at 9220 ng·h/mL. In addition, in data set [1] (setting [4]), the concentration at 0.25 hr turned out to be 896 ng/mL, the concentration at 0.5 hr amounted to 1490 ng/mL, the concentration at 1 hr was determined as 2520 ng/mL and the concentration at 2 hr stood at 1950 ng/mL. Also, in data set [1] (setting [4]), the concentration at 4 hr is 1600 ng/mL and the concentration at 6 hr was determined as 423 ng/mL.

Consider `[2H]C(C(=O)[C@@]1([2H])CC[C@H]2[C@@H]3CC[C@H]4C[C@@](O)(COC([2H])([2H])[2H])CC[C@]4(C)[C@H]3CC[C@@]21C)n1ccnc1` (stereo partly drawn) [Example 5, 1-((3R,5S,8R,9S,10S,13S,14S,17S)-3-hydroxy-3-((methoxy-d3)methyl)-10,13-dimethylhexadecahydro-1H-cyclopenta[a]phenanthren-17-yl-17-d)-2-(1H-imidazol-1-yl)ethan-1-one-2-d], for which, in data set [1] (brain), the highest concentration (Cmax) came out at 5700 ng/g, the Tmax came to 1 h and the exposure (AUC) worked out at 23500 ng·h/mL. Moreover, in data set [1] (setting [3]), the concentration at 0.25 hr amounted to 3450 ng/g, the concentration at 0.5 hr was determined as 5540 ng/g, the concentration at 1 hr turned out to be 5700 ng/g and the concentration at 2 hr came to 5100 ng/g. In data set [1] (setting [3]), the concentration at 4 hr was 3180 ng/g and the concentration at 6 hr stood at 2240 ng/g. Besides, the Kp in data set [1] is 2.6. For the same compound, in data set [1] (plasma), the maximum concentration (Cmax) was 2300 ng/mL, the time to peak (Tmax) came out at 1 h and the AUC was 8900 ng·h/mL. Also, in data set [1] (setting [4]), the concentration at 0.25 hr was 1490 ng/mL, the concentration at 0.5 hr is 1960 ng/mL, the concentration at 1 hr worked out at 2300 ng/mL and the concentration at 2 hr was 1770 ng/mL. Further, in data set [1] (setting [4]), the concentration at 4 hr came to 1340 ng/mL and the concentration at 6 hr came to 725 ng/mL. In addition, in data set [2] (0 hr), the “percentage of initial concentration” value is 100%. Moreover, in data set [2] (0.5 hr), the “percentage of initial concentration” value came to 83%. Further, the “percentage of initial concentration” value in data set [2] (1.0 hr) amounted to 80%. Besides, in data set [2] (4.0 hr), the “percentage of initial concentration” value amounted to 52%.

In the case of `[2H]c1nc([2H])n(C([2H])C(=O)[C@@]2([2H])CC[C@H]3[C@@H]4CC[C@H]5C[C@@](O)(COC([2H])([2H])[2H])CC[C@]5(C)[C@H]4CC[C@@]32C)c1[2H]` (stereo partly drawn) [Example 6, 1-((3R,5S,8R,9S,10S,13S,14S,17S)-3-hydroxy-3-((methoxy-d3)methyl)-10,13-dimethylhexadecahydro-1H-cyclopenta[a]phenanthren-17-yl-17-d)-2-(1H-imidazol-1-yl-d3)ethan-1-one-2-d], in data set [1] (10 mg/kg po), the “brain exposure of drug compared to the non-deuterated compound of Example 1” value is given as “much higher” and the “brain/plasma AUC ratio” value is on record as “much higher”. In data set [1] (brain), the concentration peaked (Cmax) at 5350 ng/g, the Tmax was 1 h and the AUC was 22400 ng·h/mL. Besides, in data set [1] (setting [3]), the concentration at 0.25 hr was 3300 ng/g, the concentration at 0.5 hr is 5350 ng/g, the concentration at 1 hr came to 5300 ng/g and the concentration at 2 hr worked out at 4880 ng/g. In addition, in data set [1] (setting [3]), the concentration at 4 hr turned out to be 3060 ng/g and the concentration at 6 hr was found to be 2110 ng/g. Moreover, the Kp in data set [1] is 2.7. For the same compound, in data set [1] (plasma), the maximum concentration (Cmax) came out at 2120 ng/mL, the time to peak (Tmax) came out at 1 h and the AUC is 8200 ng·h/mL. Also, in data set [1] (setting [4]), the concentration at 0.25 hr amounted to 1410 ng/mL, the concentration at 0.5 hr was 1850 ng/mL, the concentration at 1 hr is 2120 ng/mL and the concentration at 2 hr is 1650 ng/mL. In data set [1] (setting [4]), the concentration at 4 hr was 1220 ng/mL and the concentration at 6 hr turned out to be 642 ng/mL. In data set [2] (0 hr), the “percentage of initial concentration” value is 100%. Besides, the “percentage of initial concentration” value in data set [2] (0.5 hr) is 83%. Besides, the “percentage of initial concentration” value in data set [2] (1.0 hr) was 69%. Moreover, in data set [2] (4.0 hr), the “percentage of initial concentration” value amounted to 45%.
